Test results as given in patent US6706663B2, “Herbicidal 3-heterocyclic substituted benzisothiazole and benzisoxazole compounds” (Wyeth, priority 2000, dated 2004).

Experiments:
[1] = test system: ABUTH (Abutilon theophrasti); test: Preemergence herbicidal evaluation; format: in vivo, Medic.; details: preemergence, rated 4-5 weeks after treatment
[2] = test system: ABUTH (Abutilon theophrasti); test: Postemergence herbicidal evaluation; format: in vivo, Medic.
Procedure, shortened: (§1)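 Seedlings grown for about two weeks were sprayed postemergence and then kept under standard greenhouse care. Injury was rated visually 4–5 weeks after treatment on a 0–9 scale against untreated controls, and ratings from repeat tests were averaged.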

GALAP (Galium aparine) [3] = test: Postemergence herbicidal evaluation; format: in vivo
Procedure, shortened: as §1

[4] = test system: IPOHE (Ipomoea hederacea); test: Preemergence herbicidal evaluation; format: in vivo, (L.) Jacq.; details: preemergence, rated 4-5 weeks after treatment
ORYSAT (Rice, Tebonnet) [5] = test: Postemergence herbicidal evaluation; format: in vivo, Oryza sativa, (L.) Tebonnet
Procedure, shortened: as §1

[6] = test system: CYPSE (Cyperus serotinus); test: Flooded paddy, preemergence weed control; format: in vivo, Rottb.; details: rated 3-4 weeks after treatment, 0-9 rating scale
Procedure, shortened: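 Seeds or propagules were planted 0.5 cm deep in silt loam and flooded to 1.5–3 cm. Compounds in 50/50 v/v aqueous/acetone were pipetted into the flood water at about 0.0080 to 0.1250 kg/ha. After 3–4 weeks in the greenhouse, effect was rated visually on a 0–9 scale versus untreated control.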

ZEAMX (Corn, Field) = test: Postemergence herbicidal evaluation; format: in vivo, Zea mays, L.
Procedure, shortened: as §1

[7] = test system: GLXMAW (Soybean, Williams); test: Postemergence herbicidal evaluation; format: in vivo, Glycine max, (L.) Merr. cv Williams
Procedure, shortened: as §1

GALAP (Galium aparine) [8] = test: Preemergence herbicidal evaluation; format: in vivo; details: preemergence, rated 4-5 weeks after treatment
Procedure, shortened: (§2)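 Seeds mixed with potting soil were planted atop about one inch of soil, then sprayed with test compound in aqueous acetone. Cups were kept in the greenhouse and rated visually 4–5 weeks after treatment on a 0–9 scale against untreated control.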

ORYSAT (Rice, Tebonnet) [9] = test: Flooded paddy, post-transplant rice tolerance; format: in vivo, Oryza sativa, (L.) Tebonnet; details: flooded paddy, post-transplant rice, rated 3-4 weeks after treatment, 0-9 rating scale
Procedure, shortened: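 Two ten-day-old seedlings were transplanted into silt loam, flooded and held at 1.5 to 3 cm water above the soil before herbicide treatment. Pots stayed in the greenhouse at that water level. Injury was scored visually on a 0-9 scale versus untreated control.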

[10] = test system: TRZAWR (Wheat, Winter, cv Riband); test: Preemergence herbicidal evaluation; format: in vivo, Triticum aestivum; details: preemergence, rated 4-5 weeks after treatment
Procedure, shortened: as §2

ORYSAT (Rice, Tebonnet) [11] = test: Preemergence herbicidal evaluation; format: in vivo, Oryza sativa, (L.) Tebonnet; details: preemergence, rated 4-5 weeks after treatment
[12] = test system: CASOB (Cassia obtusifolia); test: Postemergence herbicidal evaluation; format: in vivo, L.
Procedure, shortened: as §1

[13] = test system: AMBEL (Ambrosia artemisifolia); test: Postemergence herbicidal evaluation; format: in vivo, L.
Procedure, shortened: as §1

[14] = test system: CHEAL (Chenopodium album); test: Postemergence herbicidal evaluation; format: in vivo, L.
Procedure, shortened: as §1

[15] = test system: ECHCG (Echinochloa crus-galli); test: Postemergence herbicidal evaluation; format: in vivo, (L.) Beau
Procedure, shortened: as §1

[16] = test system: SAGPY (Sagittaria pygmaea); test: Flooded paddy, preemergence weed control; format: in vivo, L.; details: rated 3-4 weeks after treatment, 0-9 rating scale
Procedure, shortened: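 Preemergence, flooded: propagules planted at 0.5 cm depth in silt loam, water level maintained at 1.5 to 3 cm over soil, containers kept on greenhouse benches. Activity scored 0-9 by eye relative to a control plant.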

[17] = test system: CASOB (Cassia obtusifolia); test: Preemergence herbicidal evaluation; format: in vivo, L.; details: preemergence, rated 4-5 weeks after treatment
Procedure, shortened: as §2

[18] = test system: AMBEL (Ambrosia artemisifolia); test: Preemergence herbicidal evaluation; format: in vivo, L.; details: preemergence, rated 4-5 weeks after treatment
Procedure, shortened: as §2

[19] = test system: CHEAL (Chenopodium album); test: Preemergence herbicidal evaluation; format: in vivo, L.; details: preemergence, rated 4-5 weeks after treatment
Procedure, shortened: as §2

Cn1c(C(F)(F)F)cc(=O)n(-c2ccc3snc(C4OCCS4)c3c2)c1=O (centres unmarked) [Compound 31, 1-methyl-3-[3-(1,3-oxathiolan-2-yl)-1,2-benzisothiazol-5-yl]-6-(trifluoromethyl)uracil]
ABUTH preemergence herbicidal rating ([1]; Rate 0.0620 kg/ha): 8.3 | ABUTH preemergence herbicidal rating ([1]; Rate 0.1250 kg/ha): 9.0 | ABUTH preemergence herbicidal rating ([1]; Rate 0.2500 kg/ha): 9.0 | Postemergence herbicidal rating, ABUTH ([2]; rate 0.0320 kg/ha): 9.0 | Postemergence herbicidal rating, ABUTH ([2]; rate 0.0620 kg/ha): 9.0 | Postemergence herbicidal rating, GALAP (GALAP (Galium aparine) [3]; rate 0.0320 kg/ha): 6.0 | Postemergence herbicidal rating, GALAP (GALAP (Galium aparine) [3]; rate 0.0620 kg/ha): 9.0 | IPOHE preemergence herbicidal rating ([4]; Rate 0.0620 kg/ha): 5.0 | IPOHE preemergence herbicidal rating ([4]; Rate 0.1250 kg/ha): 9.0 | IPOHE preemergence herbicidal rating ([4]; Rate 0.2500 kg/ha): 9.0 | Postemergence herbicidal rating, ORYSAT (ORYSAT (Rice, Tebonnet) [5]; rate 0.0320 kg/ha): 3.5 | Postemergence herbicidal rating, ORYSAT (ORYSAT (Rice, Tebonnet) [5]; rate 0.0620 kg/ha): 5.5 | herbicidal rating, CYPSE ([6]; rate 0.0320 kg/ha): 4.0 | herbicidal rating, CYPSE ([6]; rate 0.1250 kg/ha): 5.0 | Postemergence herbicidal rating, ZEAMX (ZEAMX (Corn, Field); rate 0.0320 kg/ha): 5.5 | Postemergence herbicidal rating, ZEAMX (ZEAMX (Corn, Field); rate 0.0620 kg/ha): 5.5 | Postemergence herbicidal rating, GLXMAW ([7]; rate 0.0320 kg/ha): 8.5 | Postemergence herbicidal rating, GLXMAW ([7]; rate 0.0620 kg/ha): 9.0 | GALAP preemergence herbicidal rating (GALAP (Galium aparine) [8]; Rate 0.0620 kg/ha): 5.0 | GALAP preemergence herbicidal rating (GALAP (Galium aparine) [8]; Rate 0.1250 kg/ha): 9.0 | GALAP preemergence herbicidal rating (GALAP (Galium aparine) [8]; Rate 0.2500 kg/ha): 9.0 | herbicidal rating, ORYSAT (rice tolerance) (ORYSAT (Rice, Tebonnet) [9]; rate 0.0080 kg/ha): 0.0 | herbicidal rating, ORYSAT (rice tolerance) (ORYSAT (Rice, Tebonnet) [9]; rate 0.0320 kg/ha): 7.5 | herbicidal rating, ORYSAT (rice tolerance) (ORYSAT (Rice, Tebonnet) [9]; rate 0.1250 kg/ha): 9.0 | TRZAWR preemergence herbicidal rating ([10]; Rate 0.0620 kg/ha): 7.0 | TRZAWR preemergence herbicidal rating ([10]; Rate 0.1250 kg/ha): 8.0 | TRZAWR preemergence herbicidal rating ([10]; Rate 0.2500 kg/ha): 9.0 | ORYSAT preemergence herbicidal rating (ORYSAT (Rice, Tebonnet) [11]; Rate 0.0620 kg/ha): 4.0 | ORYSAT preemergence herbicidal rating (ORYSAT (Rice, Tebonnet) [11]; Rate 0.1250 kg/ha): 7.7 | ORYSAT preemergence herbicidal rating (ORYSAT (Rice, Tebonnet) [11]; Rate 0.2500 kg/ha): 8.5 | Postemergence herbicidal rating, CASOB ([12]; rate 0.0320 kg/ha): 5.0 | Postemergence herbicidal rating, CASOB ([12]; rate 0.0620 kg/ha): 8.0 | Postemergence herbicidal rating, AMBEL ([13]; rate 0.0320 kg/ha): 9.0 | Postemergence herbicidal rating, AMBEL ([13]; rate 0.0620 kg/ha): 9.0 | Postemergence herbicidal rating, CHEAL ([14]; rate 0.0320 kg/ha): 9.0 | Postemergence herbicidal rating, CHEAL ([14]; rate 0.0620 kg/ha): 9.0 | Postemergence herbicidal rating, ECHCG ([15]; rate 0.0320 kg/ha): 2.0 | Postemergence herbicidal rating, ECHCG ([15]; rate 0.0620 kg/ha): 2.0 | herbicidal rating, SAGPY ([16]; rate 0.0080 kg/ha): 0.0 | herbicidal rating, SAGPY ([16]; rate 0.0320 kg/ha): 9.0 | herbicidal rating, SAGPY ([16]; rate 0.1250 kg/ha): 9.0 | CASOB preemergence herbicidal rating ([17]; Rate 0.0620 kg/ha): 5.0 | CASOB preemergence herbicidal rating ([17]; Rate 0.1250 kg/ha): 8.0 | CASOB preemergence herbicidal rating ([17]; Rate 0.2500 kg/ha): 9.0 | AMBEL preemergence herbicidal rating ([18]; Rate 0.0620 kg/ha): 9.0 | AMBEL preemergence herbicidal rating ([18]; Rate 0.1250 kg/ha): 9.0 | AMBEL preemergence herbicidal rating ([18]; Rate 0.2500 kg/ha): 9.0 | CHEAL preemergence herbicidal rating ([19]; Rate 0.0620 kg/ha): 9.0 | CHEAL preemergence herbicidal rating ([19]; Rate 0.1250 kg/ha): 9.0 | CHEAL preemergence herbicidal rating ([19]; Rate 0.2500 kg/ha): 9.0
